Data from US12570608B2, “Compound derived from quinoline, use of a compound, composition and method for the treatment or prophylaxis of a condition caused by a blood parasite” (FUNDÃÇAO OSWALDO CRUZ, priority 2019, dated 2026).
“And” between values parts separate entries of the source, which are not always exact repeats. Equal values may be shown once. Read-outs that look alike come from different tables or passages of the source.

Columns and labels:
[1] = tested on: CQ-resistant strains; conditions: prior art; cited from earlier work
[2] = tested on: P. falciparum 3D7; assay: Antiplasmodial SYBR Green assay, CQ-sensitive strain; format: cell-based, Plasmodium falciparum; conditions: for IC50: Plasmodium falciparum; for Selectivity index 3D7: ratio between MDL50 and IC50, 3D7
Description: Each test was performed in triplicate in at least two different experiments.
(§1) Briefly, plates were centrifuged at 700 g for 5 min in room temperature to remove medium, washed with PBS, and incubated for 30 min with lysis buffer solution and SYBR Green I DNA dye (1:20000). The fluorescence of the uninfected erythrocytes was considered as background.
(§2) The half maximum inhibitory concentration of the drug (IC50) was estimated by curve fitting using software and compared with the parasite growth in the compound-free medium.

[3] = tested on: P. berghei NK65; assay: P. berghei suppression test in mice; format: in vivo; conditions: for Survival of mice compared to the untreated control: Mann-Whitney test; for Parasitemia % reduction day 5 / Parasitemia % reduction day 7 / Parasitemia % reduction day 9 / Parasitemia % reduction day 11 / Parasitemia % reduction day 13 / Parasitemia % reduction day 15: three days, relative to untreated mice
Description: A P. berghei NK65 strain was obtained as a donation from New York University and maintained through weekly blood draws.
On days 5 to 15 after parasite inoculation, blood was taken from the tail of each mouse and used to prepare thin smears that were fixed with methanol, stained with Giemsa and examined microscopically (1000×) to determine parasitemia.
Parasite growth inhibition was determined relative to parasitemia in the untreated mice, considered to be 100% parasite growth. […] The experiments were performed twice.

[4] = tested on: P. falciparum K1; assay: Antiplasmodial SYBR Green assay, multiresistant strain; format: cell-based, Plasmodium falciparum; conditions: for IC50: Plasmodium falciparum; for Antiplasmodial activity: K1 resistant strain, highest dose 10 μM; for Selectivity index K1: ratio between MDL50 and IC50, K1
Description: Freshly synchronized sorbitol ring stages (Lambros and Vanderberg, 1979) were immediately incubated with the test compounds at various concentrations (10-0.152 μM or 1.0-0.0152 μM) previously solubilized in 0.05% dimethyl sulfoxide (DMSO) (v/v). Each test was performed in triplicate in at least two different experiments.
The antiplasmodial activity of the compounds was measured by DNA labeling assay using the fluorescent probe SYBR Green (Smilkstein et al., 2004).
as §1, with “background. Fluorescence was measured in a fluorimeter at 485/535 nm.” for “background.”
as §2

[5] = tested on: BGM-VN; assay: Cytotoxicity, MTT assay; format: cell-based; conditions: 24 h incubation
Description: The compounds (20 μL) at various concentrations (400-1.0 μM) were placed in the 96-well plates, incubated with the cultured cells for 24 h under a 5%CO2 atmosphere at 37° C., and then a 3-(4,5-dimethylthiazol-2-yl)-2,5-diphenyltetrazolium bromide (MTT) solution ([…]; 20 μL/well for 3 h) was used to assess mitochondrial viability.
The supernatants were carefully removed and 100 μL of DMSO was added to each well and mixed to solubilize the formazan crystals. The optical density was determined at 570 nm. Cell viability was expressed as the percentage of the control absorbance in the untreated cells after subtracting the appropriate background. Each test was performed in triplicate in at least two different experiments.

[6] = tested on: β-hematin formation; assay: Inhibition of β-hematin formation (lipid-catalysed heme crystallization); format: biochemical
Description: Briefly, drug stock solutions were prepared in DMSO, used at a final concentration of up to 30 mM A heme stock (10 mM) was made in DMSO and diluted to […] with 100 mM sodium acetate (pH 4.8).
The plates were incubated at 37° C. for 2 h to allow crystallization, followed by the addition of 100 μL of 200 mM sodium bicarbonate (pH 9.1) to solubilize any remaining monomeric heme. After incubation for 30 min at room temperature, the amount of solubilized monomeric heme was determined by measuring the absorbance at 405 nm.
Finally, 20 μL of 1 M sodium hydroxide was added to the plates to dissolve the crystals formed. The absorbance was read at 405 nm to determine the total amount of heme present in each well.
The inhibition of heme crystallization was determined as a function of the amount of monomeric heme that was not crystallized divided by the total amount of heme present in the test mixture. The results are expressed as IC50 values based on the percentage inhibition of β-hematin formation by compounds GIQ, CEQ, PCQ and DAQ. Each test was performed in triplicate in at least two different experiments.

[7] = tested on: P. falciparum K1; assay: Time course of inhibitory activity, microscopy of synchronized parasites; format: cell-based, Plasmodium falciparum; conditions: 10 times IC50 of 3D7 applied to K1; 0, 12, 24, 36 h
Description: The time course of inhibitory activity of the CQ analogues was also evaluated. The compounds were incubated at a concentration 10 times higher than the IC50 values obtained for the P. falciparum 3D7 sensitive strain with synchronized parasites. Morphological changes were then observed by microscopy after 0, 12, 24 and 36 hours after synchronization (FIG. 3). Parasites sensitive (3D7 strain) and resistant (K1 strain) to CQ were tested in parallel, and the antimalarial CQ was used as a control.

[8] = tested on: Indochina I; conditions: resistant strain Indochina I; verapamil; cited from earlier work
[9] = CQ-sensitive strain 3D7, SYBR Green, ± SD, read-out: IC50 (nM ± SD) P.falciparum 3D7
[10] = 50 mg/kg orally, daily for three days
[11] = multiresistant strain K1, SYBR Green, ± SD, read-out: IC50 (nM ± SD) P.falciparum K1
[12] = 3D7, read-out: IC50 (nM ± SD) P.falciparum 3D7
[13] = K1, read-out: IC50 (nM ± SD) P.falciparum K1
[14] = CQ 20 mg/kg, daily for three days

Compound	Selectivity index 3D7 [2]	Survival [3, 10]	Survival of mice compared to the untreated control ([3]; 50 mg/kg orally)	Parasitemia day 5 [3, 10]	Parasitemia day 7 [3, 10]	Parasitemia % reduction day 7 ([3]; 50 mg/kg orally) [%]	Parasitemia day 9 [3, 10]	Parasitemia % reduction day 9 ([3]; 50 mg/kg orally) [%]	Parasitemia day 11 [3, 10]	Parasitemia % reduction day 11 ([3]; 50 mg/kg orally) [%]	Parasitemia day 13 [3, 10]	Parasitemia % reduction day 13 ([3]; 50 mg/kg orally) [%]	Parasitemia day 15 [3, 10]	Parasitemia % reduction day 15 ([3]; 50 mg/kg orally) [%]	MLD50 (μM) BGM-VN [5] [µM]	IC50 [2, 12] [nM]	IC50 [4, 13] [nM]	Selectivity index K1 [4]	also measured
CCN(CC)Cc1cc(Nc2ccnc3cc(Cl)ccc23)ccc1O [AQ]																			Activity against CQ-resistant strains (literature, words) [1]: cross-resistance with CQ
NCCNc1ccnc2cc(Cl)ccc12 [CEQ]	655	26 ± 6	significantly higher	0.00	0.00	100	0.00	100	0.00	100	0.57	94	4	80	179 ± 40				IC50 [2, 9]: 273 ± 12 nM; Parasitemia % reduction day 5 ([3]; 50 mg/kg orally): 100%; IC50 [4, 11]: 218 ± 44 nM
CCN(CC)CC#CCNc1ccnc2cc(Cl)ccc12 [DAQ]	32195	28 ± 1	significantly higher	0.00	0.00	100	0.00	100	0.00	100	0.77	92	3.67	82	1481 ± 39	46 ± 4	50 ± 3	29620	Selectivity index (SI) quoted in text ([2]; strain not stated): 55.750; β-hematin inhibition, comparison [6]: lower than that of CQ; Parasitemia % reduction day 5 ([3]; 50 mg/kg orally): 100%; Antiplasmodial activity [4]: active
CCN(CC)CCCC(C)Nc1ccnc2cc(Cl)ccc12 (stereo not shown) [CQ, chloroquine, reference compound]																36 ± 12	177 ± 20		Time course / stage of action, morphology [7]: did not block complete parasite development; Parasitemia until the last day of evaluation ([3]; CQ 20 mg/kg): did not show parasitemia; Survival ([3]; CQ 20 mg/kg): survived until the last day of the experiment; Survival [3, 14]: >30; Parasitemia day 5 [3, 14]: 0.00; Parasitemia % reduction day 5 ([3]; CQ 20 mg/kg): 100%; Parasitemia day 7 [3, 14]: 0.00; Parasitemia % reduction day 7 ([3]; CQ 20 mg/kg): 100%; Parasitemia day 9 [3, 14]: 0.00; Parasitemia % reduction day 9 ([3]; CQ 20 mg/kg): 100%; Parasitemia day 11 [3, 14]: 0.00; Parasitemia % reduction day 11 ([3]; CQ 20 mg/kg): 100%; Parasitemia day 13 [3, 14]: 0.00; Parasitemia % reduction day 13 ([3]; CQ 20 mg/kg): 100%; Parasitemia day 15 [3, 14]: 0.00; Parasitemia % reduction day 15 ([3]; CQ 20 mg/kg): 100%; Improvement of IC50 after PfCRT inhibition [8]: 10 ×
CCN(CC)CCCNc1ccnc2cc(Cl)ccc12 [AQ-13]																			Activity against CQ-resistant strains (literature, words) [1]: shows antimalarial activity
O=C(O)CNc1ccnc2cc(Cl)ccc12 [GIQ]	Inactive														>1000			Inactive	Antiplasmodial activity ([2]; 3D7, highest dose 10 μM): inactive; IC50 [2, 9]: > 10000 nM; β-hematin inhibition, comparison [6]: least potent; Antiplasmodial activity [4]: inactive; IC50 [4, 11]: > 10000 nM
C#CCNc1ccnc2cc(Cl)ccc12 [PCQ]	1079	17 ± 8	not increased	1.04	4.83	10	5.75	8	7.5	32	7.0	32	34.5	0	407 ± 185	377 ± 14	405 ± 32	1005	Parasitemia % reduction day 5 ([3]; 50 mg/kg orally, 50 mg/kg): 70% and 73%
